In brackets after ≈: the same amount, converted by molar mass. Starred links: 1 amine or outer side, 2 acyl side, 3 side chain; linkers in the order of their positions; H or OH if unused. Positions of bridges follow the written chain, without caps; N, C: chain ends. Non-standard residues stand in square brackets, D forms with d. Residues, ends and D or L forms follow the SMILES beside them. *: point of attachment. X2 = CC1CCC(C(=O)[*:2])N1[*:1]; NMeV = CN[CH](C(=O)O)C(C)C; X1 = Cc1ccc(C(=O)*)c(N)c1O; Sar = CNCC(=O)O
Experiments:
[1] = test system: RNA synthesis in L1210 leukemia cells; assay: Inhibition of macromolecule synthesis, 14C-uridine incorporation; assay type: cell-based, murine
Protocol: (§1) BU-3292T components A and B were tested for in vitro cytotoxicity against murine and human tumor cells and for in vivo antitumor activity in mice. Actinomycin D was used as a reference compound in both in vitro and in vivo experiments. B16-F10 (murine melanoma) and Moser (human colorectal carcinoma) cells were grown to the logarithmic phase in enriched Eagle minimum essential medium (MEM) supplemented with fetal calf serum (FCS, 10%) and kanamycin (60 mcg/ml), harvested and inoculated into wells of a 96-well microtiter plate with test materials at the concentrations of 3.0×10^4 and 6.0×10^4 cells/ml, respectively. They were incubated at 37° C. in humidified atmosphere of 5% CO2 and 95% air for 72 hours. The cytotoxic activity was determined colorimetrically at 540 nm after staining viable cells with neutral red. […] Inhibitory effects of BU-3292T component A on macromolecule (DNA, RNA and protein) synthesis were determined in vitro. Cultured L1210 murine leukemia cells (5×10^5 cells/ml) were incubated with test materials at 37° C. for 15 minutes and then further incubated for 60 minutes after the addition of labelled precursor, ^3 H-thymidine, ^14 C-uridine or ^3 H-leucine, into the cultured mixtures. After washing with chilled 5% trichloroacetic acid solution, the radioactivity incorporated into the acid-insoluble fraction of the tumor cells was determined in a liquid scintillation counter. […] In vivo antitumor activities of BU-3292T components A and B were tested in tumor-bearing female CDF mice. After the intraperitoneal implantation of diluted ascitic fluid with 1.0 ×10^6 lymphocytic leukemia P388 cells into the mice, test compounds were administered intraperitoneally once a day on days 1, 2 and 3 (QD×3).

[2] = test system: Protein synthesis in L1210 leukemia cells; assay: Inhibition of macromolecule synthesis, 3H-leucine incorporation; assay type: cell-based, murine
Protocol: as §1

[3] = test system: Clostridium perfringens A9635; assay type: cell-based; details: GAM agar
[4] = test system: DNA synthesis in L1210 leukemia cells; assay: Inhibition of macromolecule synthesis, 3H-thymidine incorporation; assay type: cell-based, murine
Protocol: BU-3292T components A and B were tested for in vitro cytotoxicity against murine and human tumor cells and for in vivo antitumor activity in mice. Actinomycin D was used as a reference compound in both in vitro and in vivo experiments. B16-F10 (murine melanoma) and Moser (human colorectal carcinoma) cells were grown to the logarithmic phase in enriched Eagle minimum essential medium (MEM) supplemented with fetal calf serum (FCS, 10%) and kanamycin (60 mcg/ml), harvested and inoculated into wells of a 96-well microtiter plate with test materials at the concentrations of 3.0×10^4 and 6.0×10^4 cells/ml, respectively. They were incubated at 37° C. in humidified atmosphere of 5% CO2 and 95% air for 72 hours. The cytotoxic activity was determined colorimetrically at 540 nm after staining viable cells with neutral red. […] Inhibitory effects of BU-3292T component A on macromolecule (DNA, RNA and protein) synthesis were determined in vitro. […] After washing with chilled 5% trichloroacetic acid solution, the radioactivity incorporated into the acid-insoluble fraction of the tumor cells was determined in a liquid scintillation counter. […]

[5] = test system: lymphocytic leukemia P388; assay: Antitumor activity against P388 leukemia (ip); assay type: in vivo, mice; details: for MST (Median survival time) / T/C: QD × 3, ip
Protocol: as §1

Solubility = assay type: physicochemical
Description: BU-3292T A is isolated as a white amorphous powder, while BU-3292T B is an orange-red powder. […] The compounds give positive responses to iodine and Rydone-Smith reagents, but negative responses to Sakaguchi, ferric chloride, ninhydrin and anthrone reagents. […] The IR spectra of BU-3292T A and B are illustrated in FIGS. 1 and 2, respectively.

[6] = Body weight change in P388-bearing mice; details: QD × 3, ip
Protocol: as §1

[7] = test system: B16-F10 (murine melanoma) cells; assay: In vitro cytotoxicity, neutral red staining; assay type: cell-based
Protocol: as §1

[8] = test system: Moser (human colorectal carcinoma) cells; assay: In vitro cytotoxicity, neutral red staining; assay type: cell-based; details: 72 hours
Protocol: as §1

[9] = test system: Klebsiella pneumoniae D11; assay: Antimicrobial activity, serial two-fold agar dilution method; assay type: cell-based; details: Nutrient agar
Protocol: (§2) The antimicrobial activity of BU-3292T A and B was determined against aerobic and anaerobic bacteria and fungi by a serial two-fold agar dilution method. BU-3292T A and B are active against aerobic gram-positive bacteria, and weakly active against anaerobic gram-negative bacteria and fungi.

[10] = test system: Propionibacterium acnes A21933; assay: as above; assay type: cell-based; details: GAM agar
Protocol: as §2

[11] = test system: Staphylococcus aureus smith; assay: as above; assay type: cell-based; details: Nutrient agar
Protocol: as §2

[12] = test system: Fusarium moniliforme A2284; assay: as above; assay type: cell-based; details: Sabouraud dextrose agar
Protocol: as §2

[13] = test system: Propionibacterium anaerobius A21905; assay: as above; assay type: cell-based; details: GAM agar
Protocol: as §2

[14] = test system: Pseudomonas aeruginosa A9930; assay: as above; assay type: cell-based; details: Nutrient agar
Protocol: as §2

[15] = test system: Trichophyton mentagrophytes D155; assay: as above; assay type: cell-based; details: Sabouraud dextrose agar
Protocol: as §2

[16] = test system: Bacillus subtilis PCI-219; assay: as above; assay type: cell-based; details: Nutrient agar
Protocol: as §2

[17] = test system: Staphylococcus epidermidis D153; assay: as above; assay type: cell-based; details: Nutrient agar
Protocol: as §2

Proteus mirabilis A9554 = assay: as above; assay type: cell-based; details: Nutrient agar
Protocol: as §2

Escherichia coli NIHJ = assay: as above; assay type: cell-based; details: Nutrient agar
Protocol: as §2

[18] = test system: Clostridium difficile A21675; assay: as above; assay type: cell-based; details: GAM agar
Protocol: as §2

Proteus vulgalis A9436 = assay: as above; assay type: cell-based; details: Nutrient agar
Protocol: as §2

[19] = test system: Aspergillus fumigatus IAM 2530; assay: as above; assay type: cell-based; details: Sabouraud dextrose agar
Protocol: as §2

[20] = test system: Bacteroides fragilis A22693; assay: as above; assay type: cell-based; details: GAM agar
Protocol: as §2

[21] = test system: Candida albicans IAM 4888; assay: as above; assay type: cell-based; details: Sabouraud dextrose agar
Protocol: as §2

[22] = test system: Streptococcus pyogenes A20201; assay: as above; assay type: cell-based; details: Nutrient agar
Protocol: as §2

[23] = test system: Staphylococcus aureus 209P; assay: as above; assay type: cell-based; details: Nutrient agar
Protocol: as §2

Mucor spinosus IFO 5317 = assay: as above; assay type: cell-based
Protocol: as §2

[24] = test system: Streptococcus faecalis A9612; assay: as above; assay type: cell-based; details: Nutrient agar
Protocol: as §2

Micrococcus luteus 1001 = assay: as above; assay type: cell-based; details: Nutrient agar
Protocol: as §2

[25] = test system: Cryptococcus neoformans IAM 4519; assay: as above; assay type: cell-based; details: Sabouraud dextrose agar
Protocol: as §2

gram-negative bacteria = assay: Antimicrobial activity, agar dilution, summary in words; assay type: cell-based; details: summary of Table 6
Protocol: as §2

[26] = test system: aerobic gram-positive bacteria; assay: as above; assay type: cell-based; details: summary of Table 6
Protocol: as §2

[27] = test system: anaerobic gram-negative bacteria and fungi; assay: as above; assay type: cell-based; details: summary of Table 6
Protocol: as §2

Cc1ccc(C(=O)NC2C(=O)NC(C(C)C)C(=O)N3C(C)CCC3C(=O)N(C)CC(=O)N(C)C(C(C)C)C(=O)OC2C)c(N)c1O (stereo not shown) [BU-3292T A] (X1-TV[X2][Sar][NMeV]; ester 1-C; configuration not given here)
inhibited RNA synthesis times more than DNA synthesis ([1]; L1210 cells, RNA versus DNA synthesis): approximately 300 times | IC50 RNA ([1]; L1210 leukemia cells, 14C-uridine): 0.23 µg/mL (≈ 0.357 µM) | inhibitory effect on protein synthesis ([2]; L1210 cells, at 100 mcg/ml, the highest concentration tested): no inhibitory effect | IC50 Protein ([2]; L1210 leukemia cells, 3H-leucine): > 100 µg/mL | MIC [3]: 100 µg/mL (≈ 155 µM) | IC50 DNA [4]: 80 µg/mL (≈ 124 µM) | MST (Median survival time) ([5]; 0.03 mg/kg/day): 11.0 days | T/C ([5]; 0.03 mg/kg/day): 110% | MST (Median survival time) ([5]; 0.1 mg/kg/day): 11.0 days | T/C ([5]; 0.1 mg/kg/day): 110% | MST (Median survival time) ([5]; 0.3 mg/kg/day): 12.0 days | T/C ([5]; 0.3 mg/kg/day): 120% | MST (Median survival time) ([5]; 1 mg/kg/day): 13.0 days | T/C ([5]; 1 mg/kg/day): 130% | MST (Median survival time) ([5]; 3 mg/kg/day): 14.0 days | T/C ([5]; 3 mg/kg/day): 140% | MST (Median survival time) ([5]; 10 mg/kg/day): 16.0 days | T/C ([5]; 10 mg/kg/day): 160% | MST (Median survival time) ([5]; 30 mg/kg/day): Tox | T/C ([5]; 30 mg/kg/day): Tox | maximum T/C value ([5]; anti-P388 leukemic activity, QD×3, ip): 160% | solubility in dimethyl sulfoxide, dimethylformamide, methanol, ethyl acetate and chloroform (Solubility; dimethyl sulfoxide, dimethylformamide, methanol, ethyl acetate, chloroform): readily soluble | solubility in water and other organic solvents (Solubility; water and other organic solvents): insoluble | Body weight change on day 4 ([6]; 0.03 mg/kg/day): +1.3 g | Body weight change on day 4 ([6]; 0.1 mg/kg/day): +1.3 g | Body weight change on day 4 ([6]; 0.3 mg/kg/day): +1.3 g | Body weight change on day 4 ([6]; 1 mg/kg/day): +0.5 g | Body weight change on day 4 ([6]; 3 mg/kg/day): +0.3 g | Body weight change on day 4 ([6]; 10 mg/kg/day): -3.0 g | IC50 ([7]; B16-F10, 72 hours): 0.007 µg/mL (≈ 0.0109 µM) | times stronger against B16-F10 cells than against Moser cells ([7]; cytotoxic activity, B16-F10 versus Moser): approximately 10 times | IC50 [8]: 0.09 µg/mL (≈ 0.14 µM) | MIC [9]: > 100 µg/mL | MIC [10]: 100 µg/mL (≈ 155 µM) | MIC [11]: 1.6 µg/mL (≈ 2.48 µM) | MIC [12]: > 100 µg/mL | MIC [13]: 100 µg/mL (≈ 155 µM) | MIC [14]: > 100 µg/mL | MIC [15]: > 100 µg/mL | MIC [16]: 0.4 µg/mL (≈ 0.62 µM) | MIC [17]: 1.6 µg/mL (≈ 2.48 µM) | MIC (Proteus mirabilis A9554): > 100 µg/mL | MIC (Escherichia coli NIHJ): > 100 µg/mL | MIC [18]: > 100 µg/mL | MIC (Proteus vulgalis A9436): > 100 µg/mL | MIC [19]: > 100 µg/mL | MIC [20]: > 100 µg/mL | MIC [21]: > 100 µg/mL | MIC [22]: 1.6 µg/mL (≈ 2.48 µM) | MIC [23]: 1.6 µg/mL (≈ 2.48 µM) | MIC (Mucor spinosus IFO 5317; Mucor spinosus IFO 5317, Sabouraud dextrose agar): 12.5 µg/mL (≈ 19.4 µM) | MIC (Mucor spinosus IFO 5317; in vitro against Mucor spinosus IF05317): 12.5 µg/mL (≈ 19.4 µM) | MIC [24]: 0.8 µg/mL (≈ 1.24 µM) | MIC (Micrococcus luteus 1001): 0.4 µg/mL (≈ 0.62 µM) | MIC [25]: 100 µg/mL (≈ 155 µM) | activity against gram-negative bacteria (gram-negative bacteria): inactive | activity against aerobic gram-positive bacteria [26]: active | activity against anaerobic gram-negative bacteria and fungi [27]: weakly active
